Results reported in patent US20100021931A1, “Fluorescence based reporter construct for the direct detection of TGF-beta receptor activation and modulators thereof” (Technische Universitat Dresden, priority 2008, published 2010).

Assays:
[1] = tested on: phosphorylated Smad1/5 transcription factors; test: phospho-SMAD1/5/8 antibody staining of fixed embryos; assay type: in vivo, Danio rerio; details: 30% epiboly
From the text: While at that stage there is not yet a morphological marker for the prospective dorsal or ventral sides of the embryo, BMP pathway activation can be detected by accumulation of phosphorylated Smad1/5 transcription factors in the prospective ventral nuclei. […] As shown in FIG. 3 (top), fluorescence of the TIPF reporter (left) coincides with the region of increased pSmad staining (center).

homozygous tkv mutants = test: Rescue of tkv mutant flies by the ubiquitin-promoter reporter transgene; assay type: in vivo, Drosophila; details: expressed from the ubiquitin promoter in transgenic flies
From the text: Using P-element mediated transgenesis with the plasmids described above transgenic fly lines were generated in a w^1118 background expressing the TIPF fusion protein under control of the ubiquitously expressed Ubiquitin promoter or in a tissue specific manner from the UAS promotor. For both transgenic construct insertions on all three major chromosomes were obtained. Insertions on the X chromosome were balanced with FM6 w^−, 2nd chromosome insertion were balanced with CyO and 3rd chromosomal insertions with TM3, Sb.

[2] = tested on: zebrafish BMP receptor ALK3; test: Zebrafish ALK3 reporter in zebrafish assays according to example 1; assay type: in vivo; details: assays as in example 1
Sequence of zebrafish BMP receptor ALK3 (as listed by the source): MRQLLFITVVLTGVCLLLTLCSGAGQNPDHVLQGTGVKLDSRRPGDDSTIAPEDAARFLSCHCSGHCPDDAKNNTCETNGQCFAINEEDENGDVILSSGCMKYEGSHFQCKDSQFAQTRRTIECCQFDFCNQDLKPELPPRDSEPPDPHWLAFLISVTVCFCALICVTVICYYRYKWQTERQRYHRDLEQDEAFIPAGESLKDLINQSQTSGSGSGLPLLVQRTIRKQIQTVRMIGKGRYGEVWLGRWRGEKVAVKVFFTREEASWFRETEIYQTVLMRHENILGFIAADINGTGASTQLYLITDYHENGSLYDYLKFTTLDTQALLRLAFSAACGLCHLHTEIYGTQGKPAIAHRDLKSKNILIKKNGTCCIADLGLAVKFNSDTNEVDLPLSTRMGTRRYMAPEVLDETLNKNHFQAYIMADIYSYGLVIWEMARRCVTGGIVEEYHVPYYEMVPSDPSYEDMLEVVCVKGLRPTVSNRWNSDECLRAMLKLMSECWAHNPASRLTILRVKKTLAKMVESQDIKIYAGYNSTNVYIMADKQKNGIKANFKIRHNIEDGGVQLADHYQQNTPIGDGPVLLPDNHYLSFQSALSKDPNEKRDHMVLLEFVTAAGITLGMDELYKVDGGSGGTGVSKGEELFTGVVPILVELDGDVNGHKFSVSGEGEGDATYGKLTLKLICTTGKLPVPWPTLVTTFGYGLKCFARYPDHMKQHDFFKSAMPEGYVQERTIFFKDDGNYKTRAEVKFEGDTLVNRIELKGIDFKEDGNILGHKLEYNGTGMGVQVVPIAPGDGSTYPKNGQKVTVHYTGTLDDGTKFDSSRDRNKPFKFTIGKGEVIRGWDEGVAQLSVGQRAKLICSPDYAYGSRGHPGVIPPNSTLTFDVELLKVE
From the text: To generate the zebrafish ALK3 reporter construct, the Tkv CDS was excised from the TIPF reporter (as constructed in example 1) with PstI and EcoRI to obtain the linearized expression vector without the TGF-beta receptor according to SEQ ID No. 22. In this vector the corresponding full length cDNA encoding the zebrafish ALK3 according to SEQ ID No. 2 was cloned, which was amplified from a custom cDNA library using primers carrying EcoRI (5′primer) and NsiI (3′primer).
Zebrafish assays were performed according to example 1.

Substance | reporter fluorescence versus region of phospho-Smad staining [1] | rescue of lethality of homozygous tkv mutants (homozygous tkv mutants) | behaviour of reporter in zebrafish assays [2]
TIPF reporter: fusion protein of Drosophila Tkv, an inverse pericam core and Drosophila FKBP12 linked by short linkers | coincided with the region of BMP pathway activation | rescue the lethality associated with homozygous tkv mutants to full adult survival | 
zebrafish ALK3 reporter: Inverse Pericam core and Drosophila FKBP12 cassette fused to the zebrafish BMP receptor ALK3 |  |  | behaved like the fly version used in example 1
